# Assay results taken from patent US20220202799A1, “PHARMACEUTICAL FORMULATIONS CONTAINING P2Y14 ANTAGONISTS” (priority 2019, published 2022).
# How the values were obtained:
# [1] = Solubility of PPTN at pH ranges suitable for intravenous injection; type: physicochemical
# Experimental: The solubility of PPTN at pH ranges suitable for intravenous injection was analyzed. PPTN (HCl salt) was dissolved in DMSO to make a stock solution, and the stock solution was diluted into various aqueous solutions. […] The solutions were then adjusted to achieve a pH ≥5.0, and the solutions were observed again.
# [2] = Stability of PPTN/SBECD solution on dilution into saline; type: physicochemical; details: 9 mg/mL PPTN
# Experimental: The stability of PPTN in SBECD-containing solutions was analyzed at various concentrations of PPTN. A solution containing 9 mg/mL PPTN and 12% SBECD, as described above, was diluted into saline as described in Table 13.
# [3] = Urine PPTN concentration after single bolus intravenous injection; type: in vivo; details: male rats; single bolus intravenous injection 0.85, 2.9 or 8.5 mg/kg
# Experimental: The pharmacokinetics of PPTN (KB-1801) in male rats receiving single bolus intravenous injections of SBECD-containing solutions were analyzed. Three cohorts of four rats each were given a single dose of PPTN (KB-1801) at 0.85 mg/kg, 2.9 mg/kg, or 8.5 mg/kg in 1 mL dosing volume.
# rats = test: Safety of PPTN/SBECD formulations during continuous intravenous infusion; type: in vivo; details: male Sprague-Dawley rat; 72-hour intravenous infusion at 100 mg/kg
# Experimental: The safety and pharmacokinetics of PPTN (KB-1801) in rats receiving continuous intravenous injections of SBECD-containing solutions were analyzed. Three cohorts of six male and six female rats each were given continuous intravenous infusion of PPTN (KB-1801) at 10 mg/kg/day, 30 mg/kg/day or 100 mg/kg/day in a dosing solution containing PPTN at 0.25 mg/mL, 0.75 mg/mL or 2.5 mg/mL and SBECD at about 3.8%. Dosing volume was 40 mIkg/day.
structure (smiles),measurement,setting,value
"O=C(O)c1cc(-c2ccc(C3CCNCC3)cc2)c2ccc(-c3ccc(C(F)(F)F)cc3)cc2c1 [KB-1801, 4-[4-(piperidin-4-yl)phenyl]-7-[4-(trifluoromethyl)phenyl]-2-naphthoic acid]",Solution appearance at 24 hours,"[1]; 0.015 mg/mL (~29 μM), 1.5 mg DMSO stock solution diluted 100x in water, pH 4-5",Clear
same,Remarks when pH adjusted to 5-5.5,"[1]; 1.0 mg/mL, DMAc/Water (10/90, v/v), initial pH ~2",Became cloudy
same,Solution appearance at 24 hours,"[1]; 5.0 mg/mL, 1.5 mg DMSO stock solution diluted 100x in PBS (20 mM), pH 5-6",Hazy
same,"Remarks when pH adjusted to 5-5.5, after sonication","[1]; 5.0 mg/mL, DMAc/Water (10/90, v/v) with ~0.1% Tween 80, after sonication",became clear
same,Remarks when pH adjusted to 5-5.5,"[1]; 5.0 mg/mL, DMAc/Water (10/90, v/v) with ~0.1% Tween 80, initial pH 1-2",Became slightly cloudy;
same,Remarks when pH adjusted to 5-5.5,"[1]; 5.0 mg/mL, DMAc/Water (10/90, v/v), initial pH 1-2",Became very cloudy
same,Remarks when pH adjusted to 5-5.5,"[1]; 5.0 mg/mL, NMP/Water (10/90, v/v), initial pH 1-2",Became very cloudy
same,Remarks when pH adjusted to 5-5.5,"[1]; 5.0 mg/mL, Propylene Glycol/Water (10/90, v/v), initial pH 1-2",Became very cloudy
same,Result (appearance after dilution),[2]; 12% SBECD stock diluted 3x with saline,Clear solution
same,Result (appearance after dilution),[2]; 12% SBECD stock diluted 10x with saline,Clear solution
same,Result (appearance after dilution),[2]; 12% SBECD stock diluted 50x with saline,Clear solution
same,Urine concentration compared with plasma,[3],in excess of plasma concentrations
same,"Mortality, animal 16003",rats,NS: No Sample. Animal 16003 died shortly after the 24h timepoint according to CRL.
